Columns and labels:
Assay type in all cases: cell-based
OVCAR3 cells = assay: Cell viability in ovarian cancer cell line OVCAR3; conditions: OVCAR3, 800 cells per well; FIG. 13(b)
Procedure: (§1) MIA PaCa-2, […], LS180, HT1376, HT29, H358, H1299, OVCAR-3, HTB-9 and Panc 10.05 cells were obtained from ATCC (Rockville, MD). MiaPaCa cells were cultured in DMEM medium supplemented with 10% FBS. H358, H1299, HTB-9, N87 and Panc 10.05 cells were cultured in DMEM/10% FBS; LS180 and HT1376 in EMEM/10% FBS; HT29 cells in McCoy5A/10% FBS; OVCAR-3 cells were incubated in RPMI/20% FBS. All cells were maintained at 37 degrees C. in an atmosphere containing 5% CO^2.
(§2) The day before transfection, cells were seeded in a 384-well plate at an optimal density of between 300 and 800 cells/well. […]
(§3) Ninety-six hours following the addition of GEM or transfection mixtures, the number of viable cells was determined with CellTiter-Glo®-2.0 reagent (Promega, Madison, WI) by measuring luminescent signal using a Cytation 5 plate reader (BioTek Inc, Winooski, VT). […]
Using the same or similar experimental condition as are described above in Example 1, the effects of (i) PGN7 (SEQ. ID No. 9-10) plus a non-signaling oligonucleotide (“NS”), (ii) BCLxL #5 (SEQ. ID No. 14)+NS, and (iii) PGN7 and BCLxL #5 in combination were evaluated and are shown in triple negative breast cancer (MDA-MB231) and ovarian cancer (OVCAR3) cell lines in FIGS. 13 (a)-(b). […]

[1] = test system: pancreatic, lung and colon cancer cell lines; assay: Cell viability in pancreatic, lung and colon cancer cell lines; conditions: single siRNA against non-silencing control; pancreatic, lung, colon; FIG. 6
Procedure: as §1
The day before transfection, cells were seeded in a 384-well plate at an optimal density of between 300 and 800 cells/well. The next day, ten 3-fold serial dilutions of single, modified-backbone siRNAs or PGN6/PGN7 siRNA and Gemcitabine (GEM) mixed with siRNAs: Wee1 #7, KRAS #1, MCL1 #3 or DM2-P47 siRNAs at 1:1 ratio were prepared and combined with diluted Lipofectamine RNAiMAX (Life Technologies, Carlsbad, CA). Within 20 minutes, 10 μl of the transfection mixtures were added to the cells in a 40 μL medium. The final concentrations of siRNAs or Gemcitabine in the wells ranged from 100 nM to 0.002 nM.
Ninety-six hours following the addition of GEM or transfection mixtures, the number of viable cells was determined with CellTiter-Glo®-2.0 reagent (Promega, Madison, WI) by measuring luminescent signal using a Cytation 5 plate reader (BioTek Inc, Winooski, VT). The treatment group (n=4) mean (±SD) was compared to those of non-treated controls and were reported as relative cell viability.
Using the same experimental conditions as are described above in Example 1, the efficacy on cell viability was evaluated for PGN6 (SEQ. ID Nos. 7-8), with and without lipofentamine (“lipo”) in three types of cancer cell lines. FIG. 3 (a)-(c) show the effects of PGN6, with and without lipo on cell viability at increasing siRNA levels in pancreatic cancer cell lines. FIG. 4 (a)-(b) similarly show the effects of these variants on cell viability in lung cancer cell lines; FIG. 5 (a)-(b) show the effects of these variants on cell viability in colon cancer cell lines. All data are shown as mean±SD. […]
Using the same experimental conditions as are described above in Example 1, the efficacy of STD1 (SEQ. ID Nos. 1-2), PGN6 (SEQ. ID Nos. 7-8) and PGN7 (SEQ. ID Nos. 9-10) were evaluated in three types of cancer cell lines. […]
Using the same experimental conditions as are described above in Example 1, the efficacy of PGN7 (SEQ. ID No. 9-10) alone and its combination with WEE1 #7 (SEQ. ID No. 13) was evaluated in three types of cancer cell lines. […]
Using the same experimental conditions as are described above in Example 1, the efficacy of PGN7 (SEQ. ID No. 9-10) and the combination of BCLxL #5 (SEQ. ID No. 14) and PGN7 was evaluated in three types of cancer cell lines. […]

[2] = test system: HT1376, HTB-9, N87 and OVCAR-3 cell lines; assay: Cell viability in urinary bladder, gastric and ovarian cancer cell lines; conditions: HT1376, HTB-9, N87, OVCAR-3; FIGS. 9-10
Procedure: as §1, §2, §3
Using the same or similar experimental condition as are described above in Example 1, the effects of PGN7 (SEQ. ID No. 9-10), Wee1 (SEQ. ID No. 13), BCLxL #5 (SEQ. ID No. 14) or the PGN7+Wee1, or PGN+BCLxL combinations were evaluated and are shown in HT1376 (400 cells/well) and HTB-9 (800 cells/well) urinary bladder cancer cell lines, N87 (600 cells/well) gastric cancer cell line, and OVCAR-3 (800 cells/well) ovarian cancer line in FIGS. 11 (a)-(d). […]

## PGN7: modified siRNA-GEM RNAi agent (SEQ. ID No. 9-10): sense 5′-AAGAAAgAgau[GEM]uGuAu[GEM]AAu-3′; antisense 5′-AuUGAuACAGAuCuCuUuCuU[GEM][GEM]dTdT-3′ (sense AAGAAAGAGATCTGTATCAAT; antisense ATTGATACAGATCTCTTTCTTCCTT; GEM modifications; 2'-modified bases; dTdT overhang; modified_base 1 OTHER; 2'-O-methyl modified nucleotide; modified_base 2 OTHER; modified_base 3 OTHER; modified_base 4 OTHER; modified_base 5 OTHER; modified_base 6 OTHER; modified_base 7 OTHER; 2'-fluoro modified nucleotide; modified_b; 2'-O-me)
OVCAR3 cells
  IC50: 0.5 nM
[1]
  reduction of cell viability: effective in reducing cell viability
[2]
  efficacy on cell viability: significant efficacy

From patent publication US20250027086A1, “COMPOSITIONS AND METHODS FOR TREATMENT OF CANCERS USING MODIFIED siRNA-GEM AGENTS” (Sirnaomics, Inc., priority 2022, published 2025)
